{"source": "patent US9440972B2", "about": "“Pyrido[2,3-d]pyrimidine-2,4(1 H,3H)-dione derivatives” (Hydra Biosciences, Inc., priority 2014, dated 2016)", "data": [{"target": "T1, TRPC5 channel (Homo sapiens, UniProt Q9UL62)", "T1 construct": "expressed in transfected cells; host or cells: HEK293/TREx (Invitrogen), tetracycline-induced", "T1 sequence (Q9UL62 1-973)": "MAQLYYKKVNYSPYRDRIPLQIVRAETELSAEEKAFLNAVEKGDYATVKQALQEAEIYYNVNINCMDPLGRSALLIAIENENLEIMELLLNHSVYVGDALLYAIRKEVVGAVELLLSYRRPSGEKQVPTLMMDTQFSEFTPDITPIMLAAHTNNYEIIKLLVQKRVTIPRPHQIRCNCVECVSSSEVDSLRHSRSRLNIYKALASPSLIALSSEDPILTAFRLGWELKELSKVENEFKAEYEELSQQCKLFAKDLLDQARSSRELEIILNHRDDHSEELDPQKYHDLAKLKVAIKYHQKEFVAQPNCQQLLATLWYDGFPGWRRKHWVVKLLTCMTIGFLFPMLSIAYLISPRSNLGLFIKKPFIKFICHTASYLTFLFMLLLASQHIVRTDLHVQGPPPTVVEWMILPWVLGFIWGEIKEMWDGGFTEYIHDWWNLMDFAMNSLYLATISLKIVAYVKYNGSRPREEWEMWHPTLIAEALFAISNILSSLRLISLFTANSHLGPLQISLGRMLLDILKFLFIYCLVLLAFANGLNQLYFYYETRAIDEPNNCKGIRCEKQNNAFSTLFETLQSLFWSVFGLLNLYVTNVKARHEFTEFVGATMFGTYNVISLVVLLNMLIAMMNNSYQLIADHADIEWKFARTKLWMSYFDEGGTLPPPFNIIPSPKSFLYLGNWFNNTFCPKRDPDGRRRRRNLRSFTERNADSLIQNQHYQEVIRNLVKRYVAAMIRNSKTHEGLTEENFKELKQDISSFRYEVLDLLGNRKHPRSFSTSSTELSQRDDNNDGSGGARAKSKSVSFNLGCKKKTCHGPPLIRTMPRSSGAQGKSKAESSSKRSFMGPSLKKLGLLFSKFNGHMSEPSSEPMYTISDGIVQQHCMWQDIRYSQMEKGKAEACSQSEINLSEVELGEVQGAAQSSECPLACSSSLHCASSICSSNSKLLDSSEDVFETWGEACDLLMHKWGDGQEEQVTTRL", "experiment": "High throughput screening assay: Fluo4 cell-based fluorescence assay of intracellular Ca2+ rise", "conditions": "HEK293/TREx cells inducibly expressing TRPC5, 0.027-20 μM in triplicate, NF = no IC50 curve could be fit", "text": "The assay depended on detection of the rise in intracellular Ca2+ concentration ([Ca2+]i) following channel activation in cells inducibly expressing the TRPC5 channel. Ca2+ rise was quantified with the use of fluorescent Ca2+ indicators that were loaded into cells and thereafter indicated the [Ca2+]i Ca2+ influx followed activation of the TRPC5 channel. Compounds inhibiting the [Ca2+]i rise were considered hits for further investigation.\nThe commercially available HEK293/TREx line (Invitrogen) was stably transfected with a TRPC5 construct and screened by conventional calcium imaging to find clones with TRPC5 expression following stimulation with 1 μg/ml tetracycline. These cells were maintained in the growth medium recommended by the manufacturer supplemented with 100 μg/ml hygromycin to promote retention of the TRPC5 construct. After growing to near confluency, cells were plated at a density of ˜35,000 cells/well in 384 well CellBind plates (Corning) in the presence of 1 μg/ml tetracycline, and allowed to grow for 20-30 hrs. A nearly confluent monolayer resulted. Cells were then loaded with Ca2+ dye: Fura-2/AM or Fluo4/AM was added to the wells to a final concentration of 4 μM or 0.5 μM, respectively, and incubated for 80 min or 60 min, respectively, at room temperature. Supernatant was then removed from the cells by inverting plates with a sharp flick, and 25 μl Hank's Balanced Salt Solution (HBSS; 0.185 g/l D-glucose, 0.9767 g/l MgS04 (anhydrous), 0.4 g/l KCl, 0.06 g/l KH2PO4 (anhydrous), 0.35 g/l NaHCO3, 8.0 g/l NaCl, and 0.04788 g/l Na2HPO4 (anhydrous); pH 7.4) was then added to each well. Following ˜0.5 hour for recovery from loading, cells were assayed using the Hamamatsu FDSS 6000 system, which permitted illumination alternately at 340 nm and 380 nm for Fura-2 experiments, or at 485 nm for Fluo4 experiments. Frames were acquired at a rate of 0.2 Hz. During the assay, the plates were continuously vortexed, with pipette mixing of wells following addition of each reagent. For the screening assay, 26 μl of a diluted compound stock (at 50 μM) was added to each well for 2 minutes following the collection of a short (4 frame) baseline. 13 μl 62 mM high-Ca2+Ringer solution (4.17 ml of normal ringer (with 2 mM Ca2+) plus 5.83 ml of isotonic calcium ringer (105 mM Ca2+; in this ringer all sodium has been replaced with calcium)) was then added to each well, achieving a final concentration of 14 mM Ca2+ and 10 μM test compound. Data was collected for ˜3 minutes following addition of high Ca2+Ringer, where the fluorescent intensity (for Fluo4) and the F340/F380 ratio (for Fura-2) were proportional to the [Ca2+]i Negative controls consisted of HEK293/TREx TRPC5 cells exposed to high Ca2+ solution, but no compound. Positive control conditions consisted of addition of 2-APB, a promiscuous blocker of TRPC5 and other channels, to columns 23 and 24 of the plates, to a final concentration of 200 μM. These controls defined a screening window, and “hits” were defined as those compounds inhibiting the fluorescence response by at least 40%. IC50 values were determined for compounds defined as “hits.” The Fluo4 cell-based fluorescence assay was used to determine the intracellular Ca2+ concentration in the presence of varying drug concentration. Final concentrations of compounds tested were 20 μM, 6.667 μM, 2.222 μM, 0.741 μM, 0.247 μM, 0.082 μM, and 0.027 μM. Compounds were tested in triplicate at all concentrations. Standard software was used to fit IC50 curves. A value of NF was assigned when no IC50 curves could not be fit.\nAdditionally or alternatively, efficacy can be represented as % inhibition in the presence (of a given concentration of compound) versus the absence of compound or in comparison to a control compound. For example, efficacy can be represented as % inhibition of ion flux in the presence versus the absence of compound.", "units": {"IC50": "nM"}, "values": [{"smiles": "Cn1c(=O)n(CCCO)c(=O)c2c(Cc3ccc(Cl)cc3)c(Oc3cncc(F)c3)cnc21", "note": "[Compound 15, 5-(4-chlorobenzyl)-6-((5-fluoropyridin-3-yl)oxy)-3-(3-hydroxypropyl)-1-methylpyrido[2,3-d]pyrimidine-2,4(1H,3H)-dione]", "IC50": 7530}, {"smiles": "CC(C)CC(O)c1c(Oc2cccc(OC(F)(F)F)c2)cnc2c1c(=O)n(CCCO)c(=O)n2C", "note": "(stereo not drawn) [Compound 44, 5-(1-hydroxy-3-methylbutyl)-3-(3-hydroxypropyl)-1-methyl-6-(3-(trifluoromethoxy)phenoxy)pyrido[2,3-d]pyrimidine-2,4(1H,3H)-dione]", "IC50": 3450}, {"smiles": "Cn1c(=O)n(CCCO)c(=O)c2c(Cc3ccc(C(F)(F)F)nc3)c(Oc3cccc(Cl)c3)cnc21", "note": "[Compound 43, 6-(3-chlorophenoxy)-3-(3-hydroxypropyl)-1-methyl-5-((6-(trifluoromethyl)pyridin-3-yl)methyl)pyrido[2,3-d]pyrimidine-2,4(1H,3H)-dione]", "IC50": 1420}, {"smiles": "CC(C)CCc1c(Oc2cccc(OC(F)(F)F)c2)cnc2c1c(=O)n(CCCO)c(=O)n2C", "note": "[Compound 49, 3-(3-hydroxypropyl)-5-isopentyl-1-methyl-6-(3-(trifluoromethoxy)phenoxy)pyrido[2,3-d]pyrimidine-2,4(1H,3H)-dione]", "IC50": "> 20000"}, {"smiles": "Cn1c(=O)n(CCCO)c(=O)c2c(Cc3ccc(Cl)cc3)c(-c3cccc(F)c3)cnc21", "note": "[Compound 25, 5-(4-chlorobenzyl)-6-(3-fluorophenyl)-3-(3-hydroxypropyl)-1-methylpyrido[2,3-d]pyrimidine-2,4(1H,3H)-dione]", "IC50": 739}, {"smiles": "CC(C)c1ccccc1-c1cnc2c(c1Cc1ccc(Cl)cc1)c(=O)n(CCCO)c(=O)n2C", "note": "[Compound 38, 5-(4-chlorobenzyl)-3-(3-hydroxypropyl)-6-(2-isopropylphenyl)-1-methylpyrido[2,3-d]pyrimidine-2,4(1H,3H)-dione]", "IC50": 215}, {"smiles": "Cn1c(=O)n(CCCO)c(=O)c2c(Cc3ccc(Cl)cc3)c(Oc3cccc(Cl)c3)cnc21", "note": "[Compound 26, 5-(4-chlorobenzyl)-6-(3-chlorophenoxy)-3-(3-hydroxypropyl)-1-methylpyrido[2,3-d]pyrimidine-2,4(1H,3H)-dione]", "IC50": 1290}, {"smiles": "Cn1c(=O)n(CCCO)c(=O)c2c(Cc3ccc(Cl)cc3)c(Oc3cncc(Cl)c3)cnc21", "note": "[Compound 16, 5-(4-chlorobenzyl)-6-((5-chloropyridin-3-yl)oxy)-3-(3-hydroxypropyl)-1-methylpyrido[2,3-d]pyrimidine-2,4(1H,3H)-dione]", "IC50": 3740}, {"smiles": "CC(C)CCc1c(Oc2cccc(Cl)c2)cnc2c1c(=O)n(CCCO)c(=O)n2C", "note": "[Compound 48, 6-(3-chlorophenoxy)-3-(3-hydroxypropyl)-5-isopentyl-1-methylpyrido[2,3-d]pyrimidine-2,4(1H,3H)-dione]", "IC50": "> 10000"}, {"smiles": "CC(C)c1cccc(Oc2cnc3c(c2Cc2ccccc2)c(=O)n(CCCO)c(=O)n3C)c1", "note": "[Compound 28, 5-benzyl-3-(3-hydroxypropyl)-6-(3-isopropylphenoxy)-1-methylpyrido[2,3-d]pyrimidine-2,4(1H,3H)-dione]", "IC50": 28.5}, {"smiles": "CC(C)c1ccccc1-c1cnc2c(c1C(O)c1ccc(Cl)cc1)c(=O)n(CCCO)c(=O)n2C", "note": "(stereo not drawn) [Compound 20, 5-((4-chlorophenyl)(hydroxy)methyl)-3-(3-hydroxypropyl)-6-(2-isopropylphenyl)-1-methylpyrido[2,3-d]pyrimidine-2,4(1H,3H)-dione]", "IC50": 977}, {"smiles": "Cn1c(=O)n(CCCO)c(=O)c2c(Cc3ccc(Cl)cc3)c(Oc3cccnc3)cnc21", "note": "[Compound 14, 5-(4-chlorobenzyl)-3-(3-hydroxypropyl)-1-methyl-6-(pyridin-3-yloxy)pyrido[2,3-d]pyrimidine-2,4(1H,3H)-dione]", "IC50": 3250}, {"smiles": "Cn1c(=O)n(CCCO)c(=O)c2c(Cc3ccc(C(F)(F)F)cc3)c(Oc3cccc(C(F)(F)F)c3)cnc21", "note": "[Compound 22, 3-(3-hydroxypropyl)-1-methyl-5-(4-(trifluoromethyl)benzyl)-6-(3-(trifluoromethyl)phenoxy)pyrido[2,3-d]pyrimidine-2,4(1H,3H)-dione]", "IC50": 180}, {"smiles": "CC(C)CCc1c(OC(C)C)cnc2c1c(=O)n(CCCO)c(=O)n2C", "note": "[Compound 37, 3-(3-hydroxypropyl)-5-isopentyl-6-isopropoxy-1-methylpyrido[2,3-d]pyrimidine-2,4(1H,3H)-dione]", "IC50": 1160}, {"smiles": "Cn1c(=O)n(CCCO)c(=O)c2c(Cc3ccc(C(F)(F)F)nc3)c(Oc3cccc(OC(F)(F)F)c3)cnc21", "note": "[Compound 32, 3-(3-hydroxypropyl)-1-methyl-6-(3-(trifluoromethoxy)phenoxy)-5-((6-(trifluoromethyl)pyridin-3-yl)methyl)pyrido[2,3-d]pyrimidine-2,4(1H,3H)-dione]", "IC50": 350}, {"smiles": "CC(C)c1ccccc1Oc1cnc2c(c1Cc1ccc(F)cc1)c(=O)n(CCCO)c(=O)n2C", "note": "[Compound 41, 5-(4-fluorobenzyl)-3-(3-hydroxypropyl)-6-(2-isopropylphenoxy)-1-methylpyrido[2,3-d]pyrimidine-2,4(1H,3H)-dione]", "IC50": 33.8}, {"smiles": "CC(C)CCc1c(Oc2cccc(C(F)(F)F)c2)cnc2c1c(=O)n(CCCO)c(=O)n2C", "note": "[Compound 46, 3-(3-hydroxypropyl)-5-isopentyl-1-methyl-6-(3-(trifluoromethyl)phenoxy)pyrido[2,3-d]pyrimidine-2,4(1H,3H)-dione]", "IC50": "> 20000"}, {"smiles": "Cn1c(=O)n(CCCO)c(=O)c2c(Cc3ccc(C(F)(F)F)nc3)c(Oc3cccc(C(F)(F)F)c3)cnc21", "note": "[Compound 24, 3-(3-hydroxypropyl)-1-methyl-6-(3-(trifluoromethyl)phenoxy)-5-((6-(trifluoromethyl)pyridin-3-yl)methyl)pyrido[2,3-d]pyrimidine-2,4(1H,3H)-dione]", "IC50": 1340}]}]}
